Data taken from ChEMBL document CHEMBL1201862, “PubChem BioAssay data set” (2004).
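In this assay, cells in 96-well plates receive the compound at five concentrations for 48 hours. Endpoints are linearly interpolated between the surrounding concentrations. GI50 is the concentration that inhibits growth by half.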 Active and inactive are the calls of the source. No stated cut-off is given here; in the data, active = GI50 up to about 1.1 µM and inactive = higher.

Legend:
Experiment in all cases: NCI-60 cell line screen, 48 h
[1] = system: SK-MEL-2
[2] = system: NCI-H460
[3] = system: DMS-273
[4] = system: NCI-H226
[5] = system: U-251
[6] = system: HCT-15
[7] = system: COLO 205
[8] = system: OVCAR-5
[9] = system: ACHN
[10] = system: SR
[11] = system: KM12
[12] = system: SK-MEL-28
[13] = system: HCC 2998
[14] = system: LOX IMVI
[15] = system: HT-29
[16] = system: SNB-78
[17] = system: UACC-257
[18] = system: KM-20L2
[19] = system: TK-10
[20] = system: SNB-75
[21] = system: LXFL 529
[22] = system: OVCAR-8
[23] = system: SK-OV-3
[24] = system: HL-60
[25] = system: HOP-92
[26] = system: M14
[27] = system: OVCAR-4
[28] = system: K562
[29] = system: SW-620
[30] = system: NCI-H23
[31] = system: SF-539
[32] = system: NCI-H522
[33] = system: 786-0
[34] = system: DLD-1
[35] = system: OVCAR-3
[36] = system: HCT-116
[37] = system: UACC-62
[38] = system: RPMI-8226
[39] = system: SF-295
[40] = system: M19-MEL
[41] = system: Malme-3M
[42] = system: RXF 631
[43] = system: IGROV-1
[44] = system: HOP-62
[45] = system: CAKI-1
[46] = system: A549
[47] = system: MOLT-4
[48] = system: SN12C
[49] = system: SF-268
[50] = system: SNB-19
[51] = system: UO-31
[52] = system: A498
[53] = system: MCF7
[54] = system: PC-3
[55] = system: T47D
[56] = system: RXF 393
[57] = system: NCI/ADR-RES
[58] = system: Hs-578T
[59] = system: DU-145
[60] = system: SK-MEL-5
[61] = system: MDA-MB-231
[62] = system: CCRF-CEM
[63] = system: DMS-114
[64] = system: EKVX

CCOC(=O)C1=C(Nc2ccccc2)SCC1=O
GI50 [1]: > 100 µM (inactive)
GI50 [2]: > 100 µM (inactive)
GI50 [3]: > 100 µM (inactive)
GI50 [4]: > 100 µM (inactive)
GI50 [5]: 10 µM (inactive)
GI50 [6]: > 100 µM
GI50 [7]: > 100 µM (inactive)
GI50 [8]: > 100 µM (inactive)
GI50 [9]: > 100 µM (inactive)
GI50 [10]: > 100 µM (inactive)
GI50 [11]: > 100 µM (inactive)
GI50 [12]: > 100 µM (inactive)
GI50 [13]: > 100 µM (inactive)
GI50 [14]: > 100 µM (inactive)
GI50 [15]: > 100 µM (inactive)
GI50 [16]: > 100 µM (inactive)
GI50 [17]: > 100 µM (inactive)
GI50 [18]: > 100 µM (inactive)
GI50 [19]: > 100 µM (inactive)
GI50 [20]: > 100 µM (inactive)
GI50 [21]: > 100 µM (inactive)
GI50 [22]: > 100 µM (inactive)
GI50 [23]: > 100 µM (inactive)
GI50 [24]: > 100 µM (inactive)
GI50 [25]: > 100 µM (inactive)
GI50 [26]: > 100 µM (inactive)
GI50 [27]: 63.2 µM (inactive)
GI50 [28]: > 100 µM (inactive)
GI50 [29]: > 100 µM (inactive)
GI50 [30]: > 100 µM (inactive)
GI50 [31]: > 100 µM (inactive)
GI50 [32]: > 100 µM (inactive)
GI50 [33]: > 100 µM (inactive)
GI50 [34]: > 100 µM (inactive)
GI50 [35]: > 100 µM (inactive)
GI50 [36]: > 100 µM (inactive)
GI50 [37]: > 100 µM (inactive)
GI50 [38]: > 100 µM (inactive)
GI50 [39]: > 100 µM (inactive)
GI50 [40]: > 100 µM (inactive)
GI50 [41]: > 100 µM (inactive)
GI50 [42]: > 100 µM (inactive)
GI50 [43]: > 100 µM (inactive)
GI50 [44]: > 100 µM (inactive)
GI50 [45]: > 100 µM (inactive)
GI50 [46]: > 100 µM (inactive)
GI50 [47]: > 100 µM (inactive)
GI50 [48]: > 100 µM (inactive)
GI50 [49]: > 100 µM (inactive)
GI50 [50]: > 100 µM (inactive)
GI50 [51]: > 100 µM (inactive)

CCCCCCCCCCC(O)[C@H]1CCC(C2CC[C@H]([C@H](O)CCCCCCCCCCC(O)CC3=CC(C)OC3=O)O2)O1 (stereo not given in full)
GI50 [1]: 1.53 µM (inactive)
GI50 [2]: 1.04 µM (active)
GI50 [3]: 1.6 µM (inactive)
GI50 [4]: 1.11 µM (active)
GI50 [5]: 3.03 µM (inactive)
GI50 [6]: 2.01 µM
GI50 [52]: 2.17 µM (inactive)
GI50 [7]: 1.48 µM (inactive)
GI50 [53]: 1.21 µM (inactive)
GI50 [8]: 3.08 µM (inactive)
GI50 [9]: 1.24 µM (inactive)
GI50 [54]: 1.7 µM (inactive)
GI50 [10]: 1.9 µM (inactive)
GI50 [11]: 1.47 µM (inactive)
GI50 [55]: 2.23 µM (inactive)
GI50 [12]: 2.05 µM (inactive)
GI50 [56]: 1.76 µM (inactive)
GI50 [13]: 3.59 µM (inactive)
GI50 [14]: 1.38 µM (inactive)
GI50 [15]: 1.55 µM (inactive)
GI50 [16]: 2.32 µM (inactive)
GI50 [17]: 1.27 µM (inactive)
GI50 [18]: 3.33 µM (inactive)
GI50 [19]: 1.59 µM (inactive)
GI50 [20]: 1.76 µM (inactive)
GI50 [21]: 2.54 µM (inactive)
GI50 [22]: 1.48 µM (inactive)
GI50 [57]: 0.211 µM (active)
GI50 [23]: 3.18 µM (inactive)
GI50 [24]: 1.77 µM (inactive)
GI50 [58]: 1.7 µM (inactive)
GI50 [25]: 2.44 µM (inactive)
GI50 [59]: 4.57 µM (inactive)
GI50 [26]: 1.69 µM (inactive)
GI50 [60]: 0.565 µM (active)
GI50 [27]: 2.75 µM (inactive)
GI50 [61]: 1.61 µM (inactive)
GI50 [28]: 1.8 µM (inactive)
GI50 [29]: 1.87 µM (inactive)
GI50 [62]: 1.94 µM (inactive)
GI50 [30]: 0.0493 µM (active)
GI50 [31]: 1.56 µM (inactive)
GI50 [32]: 1.46 µM (inactive)
GI50 [33]: 3.51 µM (inactive)
GI50 [34]: 3.67 µM (inactive)
GI50 [35]: 1.71 µM (inactive)
GI50 [36]: 1.94 µM (inactive)
GI50 [63]: < 0.01 µM (active)
GI50 [37]: 1.45 µM (inactive)
GI50 [38]: 2.21 µM (inactive)
GI50 [39]: 0.214 µM (active)
GI50 [40]: 2.22 µM (inactive)
GI50 [41]: 1.39 µM (inactive)
GI50 [42]: 2.01 µM (inactive)
GI50 [64]: 1.23 µM (inactive)
GI50 [43]: 1.66 µM (inactive)
GI50 [44]: 1.97 µM (inactive)
GI50 [45]: 2.18 µM (inactive)
GI50 [46]: 1.44 µM (inactive)
GI50 [47]: 2.47 µM (inactive)
GI50 [48]: 2.25 µM (inactive)
GI50 [49]: 1.58 µM (inactive)
GI50 [50]: 1.82 µM (inactive)
GI50 [51]: 1.15 µM (inactive)
